US20260306640A1, “TECHNOLOGIES TARGETING CELL STATES” (Auron Therapeutics, Inc., priority 2023, published 2026)
Read-outs that look alike come from different tables or passages of the source.

Tests used:
KAT2B [1] = molecular target: T1, KAT2B (Homo sapiens, UniProt Q92831); assay: Western blot of KAT2B level in NCI-H1048 cells, 24 h; type: cell-based; set-up: degrader, Western blot; conditions: various concentrations, FIG. 1 (B)
Procedure: (§1) FIG. 1. Provided compounds can provide various activities including inhibiting tumor growth in vivo. (A): Provided compounds can inhibit tumor growth in vivo. Nude Balb/c mice were inoculated with NCI-H1048 cells in Matrigel. Tumors were allowed to grow up to about 200 mm^3 and mice were then randomized into two groups. Mice were dosed intraperitoneally (i.p.) once per week with vehicle or 30 mg/kg compound 22. Tumor size was measured every three to four days and mice were sacrificed once vehicle tumors reached 2000 mm^3. Error bar is SEM. Dosing started at day 17 post tumor inoculation. (B): Provided technologies can reduce KAT2A and KAT2B levels and histone acetylation levels. […] Vehicle is DMSO. […] Cell count data relative to DMSO control after 8 days of treatment with compound 22 are presented as examples to confirm inhibition. GI50=6 nM. (D): Provided technologies can inhibit tumor growth in vivo. Nude balb/c mice inoculated with H1048 tumors were dosed intraperitoneally once per week (qw i.p.) with vehicle (HbCD) or compound 22. Average tumor volumes+/−SEM from 6 mice are represented. […] See also (A). […] Certain body weights relative to starting weight are presented as examples to confirm tolerability and safety. (F): Provided technologies can reduce KAT2A and KAT2B levels and histone acetylation levels in tumor in vivo. […]

KAT2B [2] = molecular target: T1, KAT2B; assay: Western blot of KAT2B level in NEPC primary patient organoid, 72 hours; type: cell-based; set-up: degrader, Western blot; conditions: FIG. 3 (D)
Procedure: FIG. 3. Provided compounds can provide various activities. (A): Provided technologies can reduce KAT2A and KAT2B levels and histone acetylation levels. […] Cell viability (Cell Titer Glo) data relative to DMSO control after 7 days of treatment with compound 22 are presented as examples to confirm inhibition. GI50=5 nM. (C): Provided technologies can modulate cell states and induce differentiation. […] (D): Provided technologies can reduce KAT2A and KAT2B levels and histone acetylation levels including in neuroendocrine prostate cancer primary patient organoid. […] Concentrations are nM. […] Cell viability data relative to DMSO control after 21 days of treatment with compound 22 are presented as examples to confirm inhibition. GI50=3 nM. (F): Provided technologies can modulate cell states and induce differentiation.

KAT2B [3] = molecular target: T1, KAT2B; assay: KAT2B degradation, Western Blot, MOLM-13 cells; type: cell-based; set-up: degrader, Western blot
Procedure: MOLM-13 cells were maintained at 37° C. in 5% CO2 and 90% humidity in RPMI 1640 supplemented with 20% fetal bovine serum (FBS) and 1× penicillin/streptomycin. Cells were plated in full media at 1-2 million cells/2 mL in a 6-well tissue culture treated plate with or without compounds for 24 h at 37° C. in 5% CO2.
MOLM-13 cells or NCI-H1048 cells were washed with PBS, then lysed with RIPA buffer containing 1×protease and phosphatase inhibitors (SantaCruz Biotechnologies Cat #sc-24948A). Protein was isolated by centrifugation at 12,000×g for 10 minutes at 4° C. and supernatant was collected. Protein was quantified via Bradford assay. Samples were diluted to 4 μg lysate in 16 μL RIPA buffer and then 4 μL of Jess Sample Buffer. Samples were heated at 95° C. for 5 minutes. Samples were loaded onto 12-230 kDa Jess™ Separation Module, 8×25 capillary cartridges (SM-W004, Biotechne). Antibodies loaded were: Primary antibody for KAT2A (GCN5L2 (C26A10) Rabbit mAb (3305, CST)) and for KAT2B (PCAF (C14G9)) Rabbit mAb (3378, CST) at 1:1000 and Anti-Rabbit Detection Module for Jess™ (Cat No #DM-001, Biotechne). Signal was detected by chemiluminescence.
DC50 values were determined from percent reduction of protein as compared to the DMSO control.

CD86 in MOLM-13 cells = assay: Flow cytometry for CD86 (monocytic differentiation) in MOLM-13; type: cell-based; conditions: FIG. 2
Procedure: In some assessments, flow cytometry was utilized to assess levels of cells expressing certain polypeptides. For example, for flow cytometry for CD86 in MOLM-13, MOLM13 cells were stained with Live/Dead solution (Fixable Live/Dead NIR 1:100 in PBS) at RT, in the dark, for 20 min and then washed once with cell staining solution. The cells were then blocked with Human Fc Blocker solution at RT for 8 mins. Then they were labeled with CD86-APC R700 (565149, BD) (2.5 uL/test) on ice for 30 min in the dark. Following incubation, cells were washed once with cell staining solution. Flow cytometric acquisition was done on BD Celesta flow cytometer (BD Biosciences) and analyses were performed using Flow-Jo software.

KAT2B [4] = molecular target: T1, KAT2B; assay: Western blot of KAT2B in NCI-H1048 tumors, 168 hours post last dose; type: in vivo; set-up: degrader, Western blot; conditions: FIG. 1 (F)
Procedure: as §1

KAT2A [5] = molecular target: T2, KAT2A (Homo sapiens, UniProt Q92830); assay: Western blot of KAT2A level in acute myeloid leukemia MOLM-13 cells, 48 h; type: cell-based; set-up: degrader, Western blot; conditions: FIG. 2 (A)
T2 sequence (Q92830 whole entry): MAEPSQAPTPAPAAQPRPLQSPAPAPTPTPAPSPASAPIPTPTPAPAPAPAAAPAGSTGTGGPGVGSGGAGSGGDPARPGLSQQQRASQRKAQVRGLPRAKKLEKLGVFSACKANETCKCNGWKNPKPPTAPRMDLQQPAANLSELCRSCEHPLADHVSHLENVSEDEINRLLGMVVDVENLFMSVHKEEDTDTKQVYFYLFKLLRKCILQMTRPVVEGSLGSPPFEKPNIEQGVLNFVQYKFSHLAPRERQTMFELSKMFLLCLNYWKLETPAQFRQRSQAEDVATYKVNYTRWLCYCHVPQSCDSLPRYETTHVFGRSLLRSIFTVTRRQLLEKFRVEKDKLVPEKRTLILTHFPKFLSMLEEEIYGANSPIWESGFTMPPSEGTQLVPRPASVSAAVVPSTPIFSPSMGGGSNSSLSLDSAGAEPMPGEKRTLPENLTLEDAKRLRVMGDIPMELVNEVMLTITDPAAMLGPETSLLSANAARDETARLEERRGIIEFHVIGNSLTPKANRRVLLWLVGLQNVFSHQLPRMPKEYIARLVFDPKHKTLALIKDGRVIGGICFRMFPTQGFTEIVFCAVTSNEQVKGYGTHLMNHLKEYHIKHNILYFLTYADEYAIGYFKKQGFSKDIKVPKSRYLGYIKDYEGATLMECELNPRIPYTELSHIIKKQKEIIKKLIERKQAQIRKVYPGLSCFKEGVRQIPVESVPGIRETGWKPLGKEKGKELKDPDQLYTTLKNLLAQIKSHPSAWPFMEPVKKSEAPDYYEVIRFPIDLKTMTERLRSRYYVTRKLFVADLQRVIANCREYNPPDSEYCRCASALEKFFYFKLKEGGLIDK
Procedure: FIG. 2. Provided compounds can provide various activities. (A): Provided technologies can reduce KAT2A and KAT2B levels and histone acetylation levels. […] Cell count data after 8 days of treatment with compound 22 relative to DMSO control are presented as examples to confirm inhibition. […] (C): Provided technologies can modulate cell states and induce differentiation. […] EC50=0.3 nM.

[6] = Tolerability / body weight relative to starting weight in nude Balb/c mice bearing H1048 tumors; type: in vivo; conditions: once per week i.p.; 30 mg/kg; FIG. 1 (D), (E)
Procedure: as §1

LASCPC-01 cells = assay: Inhibition of growth in vivo, neuroendocrine prostate cancer (LASCPC-01) cells; conditions: FIG. 3 (see also Example B3)
KAT2A [7] = molecular target: T2, KAT2A; assay: KAT2A degradation, Western Blot (Jess), MOLM-13 cells; type: cell-based; set-up: degrader, Western blot
In short: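 MOLM-13 cells in RPMI 1640/20% FBS were treated with compound for 24 h at 37 °C. RIPA lysates (4 μg) were run on a capillary Western (Jess) with anti-KAT2A antibody and chemiluminescent detection. DC50 comes from percent protein reduction versus DMSO control.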

T1 sequence (Q92831 whole entry): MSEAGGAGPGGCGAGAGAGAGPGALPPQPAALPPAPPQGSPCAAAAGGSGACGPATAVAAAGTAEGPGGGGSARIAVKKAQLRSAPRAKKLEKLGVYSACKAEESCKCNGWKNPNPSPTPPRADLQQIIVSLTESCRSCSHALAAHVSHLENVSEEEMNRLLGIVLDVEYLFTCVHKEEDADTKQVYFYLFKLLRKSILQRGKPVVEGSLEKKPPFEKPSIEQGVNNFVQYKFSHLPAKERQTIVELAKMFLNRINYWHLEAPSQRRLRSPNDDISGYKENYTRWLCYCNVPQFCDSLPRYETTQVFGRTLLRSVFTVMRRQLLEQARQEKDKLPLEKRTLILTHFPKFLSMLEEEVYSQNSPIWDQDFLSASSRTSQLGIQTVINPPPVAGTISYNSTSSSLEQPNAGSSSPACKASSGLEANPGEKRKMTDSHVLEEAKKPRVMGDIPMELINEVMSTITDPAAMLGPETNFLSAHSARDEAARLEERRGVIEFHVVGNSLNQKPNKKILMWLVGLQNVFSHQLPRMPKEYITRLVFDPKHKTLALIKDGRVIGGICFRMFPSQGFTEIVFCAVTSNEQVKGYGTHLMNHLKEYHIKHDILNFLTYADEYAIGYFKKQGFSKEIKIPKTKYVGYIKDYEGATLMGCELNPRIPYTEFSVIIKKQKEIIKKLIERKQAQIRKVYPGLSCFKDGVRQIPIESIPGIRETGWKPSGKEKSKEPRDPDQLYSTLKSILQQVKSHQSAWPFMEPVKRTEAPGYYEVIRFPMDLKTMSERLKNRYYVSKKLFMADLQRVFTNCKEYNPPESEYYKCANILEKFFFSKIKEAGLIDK

reduction of KAT2B level (KAT2B [1]): confirm such reduction
reduction of KAT2B level (KAT2B [2]): confirmed such reductions
EC90 (KAT2B [3]; 24 h, MOLM-13, KAT2B, read-out: DC90 (the source's name)): 3.6 nM
DC50 (KAT2B [3]; MOLM-13, KAT2B): 0.43 nM
KAT2B levels (KAT2B [3]; MOLM-13 cells, FIG. 2): potently reduce KAT2A and KAT2B levels
reduction of KAT2B in tumor (KAT2B [4]): significant reduction
reduction of KAT2A level (KAT2A [5]): confirm such reduction
EC90 (KAT2A [7]; 24 h, MOLM-13, KAT2A, read-out: DC90 (the source's name)): 0.6 nM
DC50 (KAT2A [7]; MOLM-13, KAT2A, read-out: DC50): 0.11 nM
KAT2A levels (KAT2A [7]; MOLM-13 cells, FIG. 2): potently reduce KAT2A and KAT2B levels
DC50 (KAT2A [7]; MOLM-13 cells, KAT2A, 24 h, Western Blot, vs DMSO, read-out: KAT2A MOLM-13 DC50): < 1 nM
SMILES: CN1C[C@H](Nc2cnn(C)c(=O)c2Br)C[C@H](c2ccc(C(=O)N3CCC(CN4CCN(c5ccc6c(c5)CN(C5CCC(=O)NC5=O)C6=O)CC4)CC3)cc2)C1 (stereo partly drawn) [Compound 22, 3-(5-(4-((1-(4-((3R,5R)-5-((5-bromo-1-methyl-6-oxo-1,6-dihydropyridazin-4-yl)amino)-1-methylpiperidin-3-yl)benzoyl)piperidin-4-yl)methyl)piperazin-1-yl)-1-oxoisoindolin-2-yl)piperidine-2,6-dione]
induction of differentiation (CD86) (CD86 in MOLM-13 cells): induce differentiation (e.g., monocytic differentiation as assessed using CD86)
tolerability (body weights relative to starting weight) [6]: well tolerated
cell growth in vivo (LASCPC-01 cells): inhibit cell growth in vitro and in vivo
